For 35 molecules, IC50 results are on record in US10669242B2 (priority 2016, dated 2020).

The target in the assay is T1, recombinant glucosyltransferase domain of C. difficile Toxin B/TcdB (Clostridioides difficile, UniProt P18177).
T1 construct: 6-His (C); purchased R&D Systems 6246-GT
Put plainly: biochemical.

Each structure is given as a SMILES string.

T1 sequence (P18177 1-543): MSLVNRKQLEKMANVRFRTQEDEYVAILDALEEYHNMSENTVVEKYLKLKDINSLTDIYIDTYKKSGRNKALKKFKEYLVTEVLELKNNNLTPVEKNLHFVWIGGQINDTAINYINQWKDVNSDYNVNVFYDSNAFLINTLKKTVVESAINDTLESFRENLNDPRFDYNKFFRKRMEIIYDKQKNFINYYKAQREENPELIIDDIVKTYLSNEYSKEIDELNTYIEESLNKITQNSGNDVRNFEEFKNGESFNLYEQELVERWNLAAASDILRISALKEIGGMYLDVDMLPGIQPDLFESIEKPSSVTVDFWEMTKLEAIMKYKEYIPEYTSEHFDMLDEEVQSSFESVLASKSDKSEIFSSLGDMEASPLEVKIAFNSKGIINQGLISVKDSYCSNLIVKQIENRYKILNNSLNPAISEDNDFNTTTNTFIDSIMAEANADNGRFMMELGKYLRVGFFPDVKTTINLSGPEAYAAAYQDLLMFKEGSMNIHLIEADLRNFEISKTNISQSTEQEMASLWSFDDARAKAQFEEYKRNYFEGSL

With `COc1ccc(NC(=O)c2ccc(S(=O)(=O)N3Cc4ccc(Cl)cc4NC(=O)[C@H]3Cc3ccccn3)cc2)nc1` [Example 19f, (R)-4-((8-chloro-2-oxo-3-(pyridin-2-ylmethyl)-2,3-dihydro-1H-benzo[e][1,4]diazepin-4(5H)-yl)sulfonyl)-N-(5-methoxypyridin-2-yl)benzamide], the IC50 lay in the range of 100 to 999 nM.

In the case of `O=C1Nc2cc(Cl)ccc2C(=O)N(C[C@H]2CC[C@H](C(=O)Nc3ccc(F)cn3)CC2)[C@@H]1Cc1ccccn1` [Example 4ca, (1R,4r)-4-(((R)-8-chloro-2,5-dioxo-3-(pyridin-2-ylmethyl)-2,3-dihydro-1H-benzo[e][1,4]diazepin-4(5H)-yl)methyl)-N-(5-fluoropyridin-2-yl)cyclohexanecarboxamide], the IC50 is below 100 nM.

With `O=C(O)c1ccc(CN2C(=O)c3ccc(Cl)cc3NC(=O)[C@H]2Cc2ccc(Cl)cc2)cc1` [Example 3e], the IC50 was 10000 to 35000 nM.

`O=C(Nc1ccccn1)c1ccc(CN2C(=O)c3cccc(Cl)c3NC(=O)[C@H]2Cc2cccnc2)cc1` [Example 35i]: the IC50 was in the range of 1000 to 10000 nM.

`Cn1cc(-c2cc(CN3C(=O)c4ccc(Cl)cc4NC(=O)[C@H]3Cc3ccccn3)ccc2C(=O)O)cn1` [Example 8u, (R)-4-((8-chloro-2,5-dioxo-3-(pyridin-2-ylmethyl)-2,3-dihydro-1H-benzo[e][1,4]diazepin-4(5H)-yl)methyl)-2-(1-methyl-1H-pyrazol-4-yl)benzoic acid]: the IC50 is 1000 to 10000 nM.

For `CC1C(=O)Nc2cc(Cl)ccc2C(=O)N1C1(c2ccc(C(=O)c3cccn4ccnc34)cc2)CC1` (stereo not drawn) [Example 50a, 8-Chloro-4-(1-(4-(imidazo[1,2-α]pyridine-8-carbonyl)phenyl)cyclopropyl)-3-methyl-3,4-dihydro-1H-benzo[e][1,4]diazepine-2,5-dione], the IC50 fell in the range of 100 to 999 nM.

On to `Cc1cnc(NC(=O)c2ccc(S(=O)(=O)N3Cc4ccc(Cl)cc4NC(=O)[C@H]3Cc3ccccn3)cc2)nc1` [Example 19g, (R)-4-((8-chloro-2-oxo-3-(pyridin-2-ylmethyl)-2,3-dihydro-1H-benzo[e][1,4]diazepin-4(5H)-yl)sulfonyl)-N-(5-methylpyrimidin-2-yl)benzamide], for which the concentration for half-maximal inhibition (IC50) is below 100 nM.

With `CN1CCN(CC(=O)Nc2cc(CN3C(=O)c4ccc(Cl)cc4NC(=O)[C@H]3Cc3ccccn3)ccc2C(=O)O)CC1` [Example 22j], the IC50 was in the range of 1000 to 10000 nM.

Consider `O=C(c1ccc(CN2C(=O)c3ccc(Cl)cc3NC(=O)[C@H]2Cc2ccccn2)cc1)c1cccc2cccnc12` [Example 31b], for which the IC50 was in the range of 1000 to 10000 nM.

In the case of `O=C(O)c1ccc(CN2C(=O)c3ccc(Cl)cc3NC(=O)[C@H]2Cc2ccc(Cl)c(Cl)c2)cc1` [Example 1d], the IC50 is 1000 to 10000 nM.

On to `COc1ccc(-c2cc(CN3C(=O)c4ccc(Cl)cc4NC(=O)[C@H]3Cc3ccccn3)ccc2C(=O)O)cc1` [Example 8f, (R)-5-((8-chloro-2,5-dioxo-3-(pyridin-2-ylmethyl)-2,3-dihydro-1H-benzo[e][1,4]diazepin-4(5H)-yl)methyl)-4′-methoxy-[1,1′-biphenyl]-2-carboxylic acid], for which the IC50 was 100 to 999 nM.

`O=C(Nc1cc(CN2C(=O)c3ccc(Cl)cc3NC(=O)[C@H]2Cc2ccccn2)ccc1C(=O)O)c1cccnc1` [Example 22g]: the IC50 lay within 1000 to 10000 nM.

Turning to `Cc1cccc(C[C@@H]2C(=O)Nc3cc(Cl)ccc3C(=O)N2Cc2ccc(C(=O)O)cc2)c1` [Example 3m], the half-maximal inhibitory concentration (IC50) fell in the range of 1000 to 10000 nM.

For `Cc1cnc(NC(=O)c2ccc(CN3C(=O)c4ccc(Cl)cc4NC(=O)[C@H]3Cc3cccnc3)cc2)nc1` [Example 5h, (R)-4-((8-chloro-2,5-dioxo-3-(pyridin-3-ylmethyl)-2,3-dihydro-1H-benzo[e][1,4]diazepin-4(5H)-yl)methyl)-N-(5-methylpyrimidin-2-yl)benzamide], the IC50 was below 100 nM.

Turning to `Cc1ccc(NC(=O)[C@H]2CC[C@H](CN3C(=O)c4ccc(Cl)cc4NC(=O)[C@H]3Cc3ccccn3)CC2)nc1` [Example 4bx, (1R,4r)-4-(((R)-8-chloro-2,5-dioxo-3-(pyridin-2-ylmethyl)-2,3-dihydro-1H-benzo[e][1,4]diazepin-4(5H)-yl)methyl)-N-(5-methylpyridin-2-yl)cyclohexanecarboxamide], the IC50 is below 100 nM.

With `O=C(Nc1ccc(F)cn1)c1ccc(CN2C(=O)c3ccc(Cl)cc3NC(=O)[C@H]2Cc2ccccn2)cc1Cl` [Example 5ao, (R)-2-chloro-4-((8-chloro-2,5-dioxo-3-(pyridin-2-ylmethyl)-2,3-dihydro-1H-benzo[e][1,4]diazepin-4(5H)-yl)methyl)-N-(5-fluoropyridin-2-yl)benzamide], the IC50 is below 100 nM.

On to `Cc1ccnc(NC(=O)c2ccc(CN3C(=O)c4ccc(Cl)cc4NC(=O)[C@H]3Cc3cccnc3)cc2)c1` [Example 4s, (R)-4-((8-chloro-2,5-dioxo-3-(pyridin-3-ylmethyl)-2,3-dihydro-1H-benzo[e][1,4]diazepin-4(5H)-yl)methyl)-N-(4-methylpyridin-2-yl)benzamide], for which the IC50 is below 100 nM.

For `O=C1Nc2cc(Cl)ccc2C(=O)N(Cc2ccc3c(c2)CN(c2ccccn2)C3=O)[C@@H]1Cc1ccccn1` [Example 49d], the half-inhibitory concentration (IC50) lay in the range of 100 to 999 nM.

As to `O=C(O)c1ccc(CN2C(=O)c3ccc(Cl)cc3NC(=O)[C@H]2Cc2ccccn2)cc1-c1cn[nH]c1` [Example 8r, (R)-4-((8-chloro-2,5-dioxo-3-(pyridin-2-ylmethyl)-2,3-dihydro-1H-benzo[e][1,4]diazepin-4(5H)-yl)methyl)-2-(1H-pyrazol-4-yl)benzoic acid], the IC50 was 100 to 999 nM.

Regarding `O=C(Nc1nccs1)c1ccc(CN2C(=O)c3ccc(Cl)cc3NC(=O)[C@H]2Cc2cccnc2)cc1` [Example 4c, (R)-4-((8-chloro-2,5-dioxo-3-(pyridin-3-ylmethyl)-2,3-dihydro-1H-benzo[e][1,4]diazepin-4(5H)-yl)methyl)-N-(thiazol-2-yl)benzamide], the IC50 was below 100 nM.

With `O=C(O)c1ccc(CN2C(=O)c3ccc(Cl)cc3NC(=O)[C@H]2Cc2ccccn2)cc1F` [Example 1i], the 50% inhibitory concentration (IC50) is 100 to 999 nM.

Consider `COc1ccc(NC(=O)c2ccc(CN3C(=O)c4ccc(Cl)cc4NC(=O)[C@H]3Cc3ccccn3)s2)nc1` [Example 4br, (R)-5-((8-chloro-2,5-dioxo-3-(pyridin-2-ylmethyl)-2,3-dihydro-1H-benzo[e][1,4]diazepin-4(5H)-yl)methyl)-N-(5-methoxypyridin-2-yl)thiophene-2-carboxamide], for which the IC50 is 100 to 999 nM.

With `O=C1CN(Cc2ccc(C(=O)O)cc2)C(=O)c2ccc(Cl)cc2N1` [Example 3o], the IC50 is 10000 to 35000 nM.

`CC(C)c1ccc(NC(=O)c2ccc(CN3C(=O)c4ccc(Cl)cc4NC(=O)[C@H]3C)cc2)nc1` [Example 4az, (R)-4-((8-chloro-3-methyl-2,5-dioxo-2,3-dihydro-1H-benzo[e][1,4]diazepin-4(5H)-yl)methyl)-N-(5-isopropylpyridin-2-yl)benzamide]: the IC50 lay within 100 to 999 nM.

On to `Cn1cnc(C(=O)c2ccc(CN3C(=O)c4ccc(Cl)cc4NC(=O)[C@H]3Cc3ccccn3)cc2)c1` [Example 31d], for which the 50% inhibitory concentration (IC50) is 100 to 999 nM.

For `COc1ccc(NC(=O)c2ccc(CN3C(=O)c4ccc(Cl)cc4NC(=O)C3Cc3cnccn3)cc2)nc1` (centres unmarked) [Example 5w, 4-((8-chloro-2,5-dioxo-3-(pyrazin-2-ylmethyl)-2,3-dihydro-1H-benzo[e][1,4]diazepin-4(5H)-yl)methyl)-N-(5-methoxypyridin-2-yl)benzamide], the half-inhibitory concentration (IC50) was below 100 nM.

In the case of `CN(C(=O)c1ccc(CN2C(=O)c3ccc(Cl)cc3NC(=O)[C@H]2Cc2cccnc2)cc1)c1ccccn1` [Example 4m, (R)-4-((8-chloro-2,5-dioxo-3-(pyridin-3-ylmethyl)-2,3-dihydro-1H-benzo[e][1,4]diazepin-4(5H)-yl)methyl)-N-methyl-N-(pyridin-2-yl)benzamide], the IC50 fell in the range of 100 to 999 nM.

With `O=C(Nc1ccc(CN2C(=O)c3ccc(Cl)cc3NC(=O)[C@H]2Cc2ccccn2)cc1)c1cscn1` [Example 27f], the IC50 is below 100 nM.

With `Cc1cncc(NC(=O)c2ccc(CN3C(=O)c4ccc(Cl)cc4NC(=O)[C@H]3C)cc2)n1` [Example 5o, (R)-4-((8-chloro-3-methyl-2,5-dioxo-2,3-dihydro-1H-benzo[e][1,4]diazepin-4(5H)-yl)methyl)-N-(6-methylpyrazin-2-yl)benzamide], the concentration for half-maximal inhibition (IC50) is 100 to 999 nM.

In the case of `O=C(O)c1ccc(CN2C(=O)c3ccc(Cl)cc3NC(=O)[C@H]2Cc2cccs2)cc1` [Example 1k], the IC50 lay within 10000 to 35000 nM.

Regarding `O=C1Nc2cc(Cl)ccc2C(=O)N(C[C@H]2CC[C@H](C(=O)c3cccc4cccnc34)CC2)[C@@H]1Cc1ccccn1` [Example 33a, (R)-8-Chloro-3-(pyridin-2-ylmethyl)-4-(((1r,4R)-4-(quinoline-8-carbonyl)cyclohexyl)methyl)-3,4-dihydro-1H-benzo[e][1,4]diazepine-2,5-dione], the concentration for half-maximal inhibition (IC50) was 10000 to 35000 nM.

As for `CC(=O)Nc1cccc(-c2cc(CN3C(=O)c4ccc(Cl)cc4NC(=O)[C@H]3Cc3ccccn3)ccc2C(=O)O)c1` [Example 8q, (R)-3′-acetamido-5-((8-chloro-2,5-dioxo-3-(pyridin-2-ylmethyl)-2,3-dihydro-1H-benzo[e][1,4]diazepin-4(5H)-yl)methyl)-[1,1′-biphenyl]-2-carboxylic acid], the IC50 lay within 100 to 999 nM.

Regarding `CNC(=O)c1ccc(-c2cc(CN3C(=O)c4ccc(Cl)cc4NC(=O)[C@H]3Cc3ccccn3)ccc2C(=O)O)cc1` [Example 8o, (R)-5-((8-chloro-2,5-dioxo-3-(pyridin-2-ylmethyl)-2,3-dihydro-1H-benzo[e][1,4]diazepin-4(5H)-yl)methyl)-4′-(methylcarbamoyl)-[1,1′-biphenyl]-2-carboxylic acid], the IC50 is 1000 to 10000 nM.

Take `O=C(CO)Nc1cc(CN2C(=O)c3ccc(Cl)cc3NC(=O)[C@H]2Cc2ccccn2)ccc1C(=O)O` [Example 22o]: the IC50 lay in the range of 100 to 999 nM.

Take `COc1ccc(NC(=O)c2ccc(CN3C(=O)c4ccc(Cl)cc4NC(=O)[C@H]3Cc3ccccn3)cc2)nn1` [Example 4bm, (R)-4-((8-chloro-2,5-dioxo-3-(pyridin-2-ylmethyl)-2,3-dihydro-1H-benzo[e][1,4]diazepin-4(5H)-yl)methyl)-N-(6-methoxypyridazin-3-yl)benzamide]: the IC50 is below 100 nM.

For orientation: IC50 means the concentration at which inhibition is half-maximal.
